The record followed here is patent US20110263566A1 (priority 2008, published 2011).

Test in all cases: cells
One test has as its system HT-1197 cells. The conditions noted are these: Homo sapiens, HT1197, 72 h, read-out: IC50 (microM) (HT1197). The procedure: (§1) To evaluate the expression status of PBK in several cell lines, western blot analysis was performed using crude cell lysate collected from those cells.
(§2) 100 micro-L of cell suspension was seeded onto 96-well microtiter plate (ViewPlate-96FTC, PerkinElmer). […] Cellular growth was determined using Cell Counting Kit-8 (DOJINDO) at 72 hours after the exposure of the candidate inhibitors. […] Accurate IC50 values were calculated as described previously.

In the next test the test system is BT-549 cells. The conditions noted are these: Homo sapiens, BT-549, 72 h, read-out: IC50 (microM) (BT549). As to the method: as §1, §2
A further test has as its system T47D cells. The conditions noted are these: Homo sapiens, 72 h, read-out: IC50 (microM) (T47D). The procedure: as §1, §2

As usually defined, the IC50 is the concentration needed to halve the response being measured. As for `NC12CC3CC(C1)CC(NC(=O)c1ccc(O)c4[nH]c(C5CC6CCC5C6)nc14)(C3)C2` (stereo not drawn) [Example 53], the IC50 with HT-1197 cells stood at 24 µM; in the test on BT-549 cells, 4.6 µM; in the test with T47D cells it was 5.2 µM.
In the same order, the values of `NC12CC3CC(C1)CC(NC(=O)c1ccc(O)c4[nH]c(-c5cccs5)nc14)(C3)C2` [Example 54, 2-(Thiophene-2-yl)-7-hydroxy-N-(adamantate-3-ylamino)-1H-benzo[d]imidazole-4-carboxamide] are 10 µM, 3.3 µM and 1.6 µM.
In the same order, the values of `NC1CCCC(NC(=O)c2ccc(O)c3[nH]c(C4CC5CCC4C5)nc23)C1` (stereo not drawn) [Example 55, N-(3-Aminocyclohexyl)-2-(bicyclo[2.2.1]heptan-2-yl)-7-hydroxy-1H-benzo[d]imidazole-4-carboxamide] are 74 µM, 2.9 µM and 9.1 µM.
Regarding `N[C@H]1CC[C@@H](CNC(=O)c2ccc(O)c3[nH]c(C4CC5CCC4C5)nc23)CC1` (stereo partly drawn) [Example 56, N-{[(cis)-4-Aminocyclohexyl]methyl}-2-(bicyclo[2.2.1]heptan-2-yl)-7-hydroxy-1H-benzo[d]imidazole-4-carboxamide], the half-inhibitory concentration (IC50) in the test on HT-1197 cells was 61 µM; in the test on BT-549 cells it was 10 µM; in the test with T47D cells, 30 µM.
In the same order, the values of `O=C(N[C@H]1CCCNC1)c1ccc(O)c2[nH]c(-c3ccc(N4CCNCC4)s3)nc12` [Example 57, (S)-7-hydroxy-2-(5-(piperazin-1-yl)thiophen-2-yl)-N-(piperidin-3-yl)-1H-benzo[d]imidazole-4-carboxamide] are 33 µM, 1.1 µM and 1.1 µM.
In the same order, the values of `O=C(NC[C@@H]1CCCNC1)c1ccc(O)c2[nH]c(Cc3cccs3)nc12` [Example 58, (R)-7-hydroxy-N-(piperidin-3-ylmethyl)-2-(thiophen-2-ylmethyl)-1H-benzo[d]imidazole-4-carboxamide] are 21 µM, 13 µM and 24 µM.
In the same order, the values of `O=C(N[C@H]1CCCNC1)c1ccc(O)c2[nH]c(Cc3cccs3)nc12` [Example 59, (S)-7-hydroxy-N-(piperidin-3-yl)-2-(thiophen-2-ylmethyl)-1H-benzo[d]imidazole-4-carboxamide] are 76 µM, 2.9 µM and 11 µM.
With `O=C(NC[C@H]1CCCNC1)c1ccc(O)c2[nH]c(Cc3cccs3)nc12` [Example 60, (S)-7-hydroxy-N-(piperidin-3-ylmethyl)-2-(thiophen-2-ylmethyl)-1H-benzo[d]imidazole-4-carboxamide], the results for the concentration for half-maximal inhibition (IC50) in the test with HT-1197 cells, in the test with BT-549 cells and in the test on T47D cells were 33 µM, 49 µM and 42 µM, respectively.
